Our source for the GI50 and TGI values is PubChem BioAssay (NCI).

SMILES strings stand for the structures.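 Five compound concentrations were applied to cells in 96-well plates for 48 hours; endpoints were derived by simple linear interpolation of the resulting dose-response curve. Here, GI50 denotes the concentration required for 50% inhibition of growth. Definition used: TGI = concentration required for complete inhibition of growth.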

Common to all, as to assay: NCI anticancer screen, dose series, 48 h
In experiment [1] the test system is OVCAR-3 ovarian.
Experiment [2] deals with SF-295 CNS.
Experiment [3] concerns HOP-92 NSCLC.
Experiment [4] relates to SR leukemia.
In experiment [5] the test system is HCT-116 colon.
Experiment [6] relates to K-562 leukemia.
The test system of experiment [7] is MALME-3M melanoma.
Experiment [8] relates to LOX IMVI melanoma.
Experiment [9] deals with HT29 colon.
Experiment [10] has as its system NCI-H226 lung.

Take `CCOC(=O)C(=Cc1c(-c2ccccc2)[nH]c2ccccc12)C(=O)OCC`: the GI50 in experiment [1] was 4.21 µM; in experiment [2], 7.27 µM; in experiment [3], 5.47 µM; in experiment [4], 2.09 µM; in [5], 4.25 µM; in experiment [6] it was 3.6 µM. Besides, the GI50 was 8.09 µM in experiment [7], 5.58 µM in [8], 4.56 µM in experiment [9] and 11.3 µM in experiment [10]. Besides, the TGI was 22.6 µM in experiment [1]; 63.8 µM in experiment [2]; greater than 29.8 µM in [3]; 9.43 µM in experiment [4]; 16 µM in experiment [5]; 24 µM in experiment [6]. For the same compound, the TGI in [7] came out at 22.3 µM; in experiment [8] it was 19.4 µM; in experiment [9], 17.1 µM; in [10], 34.7 µM.
On to `COC12C=C/C(=C(/C(=O)OCc3csc(SC)n3)C(=O)CCCCCCCCC3(OC)C=C/C(=C(/C(=O)OCc4cnc(SC)s4)C(=O)CCCCCCCC1)O3)O2` (stereo not given), for which the GI50 was 2.74 µM in experiment [1]; 3.33 µM in experiment [2]; 12.3 µM in [3]; 2.05 µM in [4]; 0.439 µM in [5]; 3.19 µM in experiment [6]. For the same compound, the GI50 in [7] was 3.84 µM; in experiment [8], 1.2 µM; in experiment [9], 4.41 µM; in [10] it was 3.48 µM. Further, the TGI was greater than 100 µM in experiment [1]; 25.7 µM in experiment [2]; 32.3 µM in [3]; greater than 100 µM in [4]; 10.9 µM in experiment [5]; greater than 100 µM in [6]. In addition, the TGI in experiment [7] was 39.7 µM; in [8] it was 3.53 µM; in experiment [9], greater than 100 µM; in [10], 17.1 µM.
Regarding `CCCCCCCCCCCCNC(=O)[C@H]1CSC(c2ccsc2)N1` (stereo not given in full), the GI50 in experiment [1] is 0.995 µM; in [2] it was 0.926 µM; in [3], 1.01 µM; in [4], 0.882 µM; in [5] it was 0.908 µM; in experiment [6], 1.02 µM. The GI50 is 1.14 µM in [7], 0.824 µM in [8], 0.995 µM in experiment [9] and 0.896 µM in experiment [10]. Moreover, the TGI in experiment [1] is 1.81 µM; in [2], 1.68 µM; in experiment [3] it was 2.02 µM; in experiment [4], 2.07 µM; in [5], 1.71 µM; in [6], 2.04 µM. Besides, the TGI in experiment [7] was determined as 2.12 µM; in [8], 1.64 µM; in experiment [9], 1.83 µM; in experiment [10], 1.74 µM.
In the case of `NC1(C(=O)O)CSSC1`, the GI50 in [1] is 4.75 µM; in experiment [2], 2.35 µM; in [3], 14.3 µM; in experiment [4], 17.8 µM; in [5], 4.53 µM; in experiment [6], 3.7 µM. The GI50 in [7] was 2.77 µM; in experiment [8], 3.24 µM; in experiment [9], 3.84 µM; in experiment [10], 2.7 µM. Further, the TGI in experiment [1] was 59.3 µM; in [2], 8.25 µM; in experiment [3], 68.7 µM; in experiment [4], greater than 100 µM; in experiment [5], 84.5 µM; in experiment [6], greater than 100 µM. In addition, the TGI in experiment [7] was 7.12 µM; in experiment [8], 14.8 µM; in [9], 31.7 µM; in [10], 8.82 µM.
For `O=C(O)C(CS)N=Cc1nc(-c2ccccc2)oc1O` (stereo not given), the TGI in [1], in experiment [2], in [3], in experiment [4], in experiment [5] and in experiment [6] was greater than 100 µM throughout. Also, the TGI in experiment [7], in experiment [8], in experiment [9] and in [10] was greater than 100 µM each time.
For the compound `O=C(Nc1nc2ccc(F)cc2s1)c1cccnc1Nc1ccc(Cl)cc1Cl`, the GI50 in experiment [1] is 2.18 µM; in experiment [2], 1.93 µM; in experiment [3] it was 1.4 µM; in experiment [4], 2.22 µM; in [5], 2.07 µM; in experiment [6] it was 1.93 µM. The GI50 was 2.19 µM in experiment [7], 3.62 µM in [8], 2.05 µM in [9] and 2.72 µM in [10]. In addition, the TGI came to 7.1 µM in experiment [1]; 8.02 µM in [2]; 5.15 µM in experiment [3]; 8.23 µM in [4]; 8.01 µM in experiment [5]; 9.26 µM in experiment [6]. In addition, the TGI was 12.1 µM in [7], 14.6 µM in experiment [8], 9.75 µM in [9] and 19.3 µM in [10].
Consider `Nc1ccc2c(SCC(=O)Nc3ccccc3-c3ccccc3NC(=O)CSc3c4ccccc4nc4cc(N)ccc34)c3ccccc3nc2c1`, for which the TGI in experiment [1] was 70.4 µM; in [2], 98 µM; in [3] it was 79.9 µM; in experiment [4], greater than 100 µM; in experiment [5], 64.5 µM; in [6] it was 28.3 µM. The TGI in experiment [7] is 56 µM; in [8], 66.2 µM; in experiment [9] it was greater than 100 µM; in experiment [10], 72.6 µM.
As to `CC(C)c1ccc2c(c1)c(SC(C)(C)C)c(CC(C)(C)C(=O)O)n2Cc1ccc(Cl)cc1`, the GI50 in experiment [1] was 6.36 µM; in experiment [2], 6.69 µM; in experiment [3], 7.49 µM; in experiment [4], 10.6 µM; in experiment [5], 9.1 µM; in experiment [6] it was 7.48 µM. The GI50 is 17.6 µM in experiment [7], 10.9 µM in experiment [8], 5.75 µM in experiment [9] and 12.6 µM in experiment [10]. For the same compound, the TGI in [1] is 19.8 µM; in experiment [2], 22.2 µM; in [3], 22.5 µM; in experiment [4] it was 36.7 µM; in experiment [5], 25.6 µM; in experiment [6], 37.8 µM. Further, the TGI in [7] was determined as 34 µM; in experiment [8], 24.7 µM; in experiment [9] it was 16.9 µM; in [10], 30.8 µM.
